Measured values as given in patent US6864068B2, “Antifungal proteins” (Syngenta Limited, priority 1995, dated 2005).
Square brackets hold non-standard residues; d marks the D form. Ends that are not written are not given here. pGlu = O=C1CC[C@@H](C(=O)O)N1

Tests used:
Fusarium culmorum [1] = experiment: Liquid growth inhibition assay in half strength potato dextrose broth; type: cell-based; conditions: F culmorum
Description: Yeast cells transformed with either pTG3828, pMFprepro/Rs AFP2 or PMFpre/RsAFP2 were grown in selective SD medium until a saturated culture was obtained. To assess the antifungal activity of proteins secreted by the yeast cells, the supernatant of the yeast cultures was filtered (sterile 0.22 μm filter) and serially diluted in sterile water. Diluted samples (20 μl) were incubated in microtiter plate wells with 80 μl of half strength potato dextrose broth (Difco) containing spores 10^4 spores/ml) of Fusarium culmorum.
Growth of the fungi was monitored by microspectrophotometry as described by Broekaert et al (1990, FEMS Microbiol Lett, 69:55-60). Homogenates of yeast cells were prepared by spinning down 1 ml of a saturated yeast culture, suspending the cells in 200 μl of water, vortexing the cells in the presence of 0.2 g of glass beads (425-600 μm), and clearing the homogenate by centrifugation (1 min, 10000×g). Antifungal activity could only be detected in the culture medium of yeast cells transformed with pMFprepro/RsAFP2, which contained about 2 μg/ml of Rs-AFP2 equivalents. The activity of the homogenate of these cells, as well as that of culture media and cell homogenates of yeast cells transformed with pMFpre/RsAFP2 or pTG3828 transformed yeasts was below the detection limit (about 0.2 μg/ml of Rs-AFP2 equivalents).
The supernatant of 100 ml of a saturated culture of yeast transformed with pMFprepro/RsAFP2 (grown on minimal selective SD medium supplemented with 0.5% w/v of casamino acids) was centrifuged (4000 rpm, 10 min), and filtered (0.45 μm) to remove yeast cells and debris. Tris-HC1 (pH9) was added to the supernatant to a final concentration of 50 mM. The sample was loaded at a flow rate of 2 ml/min on an anion exchange chromatography column (Q-Sepharose Fast Flow, 20 ml bed volume, Pharmacia), on-line connected with a disposable reversed-phase C8 silica column (Bond Elut, 500 mg solid phase, Varian, Harbor City, USA). The antifungal activity was not retained on the Q-Sepharose matrix but bound to the C8 silica matrix. […] The latter eluate was dried in a rotating vacuum concentrator, redissolved in 0.5 ml 15% (v/v) acetonitrile containing 0.1% (v/v) TFA, and was loaded on a reversed-phase C2/C18 silica column (Pep-S, 5 μm beads, 0.4×25 cm, Pharmacia connected to a Waters 600 HPLC station pre-equilibriated with 15% acetonitrile containing 0.1% (v/v) TFA. After loading, the column was rinsed with the same buffer until the absorbance reached background level. The column was subsequently eluted with a 15 minute linear gradient from 15% to 50% acetonitrile containing 0.1% TFA at a flow rate of 1 ml/min. The eluate was monitored for proteins by on-line measurement of the absorbance at 280 nm. […] Twenty μl fractions were tested in a liquid growth inhibition assay: 20 μl samples were incubated in microtiter plate wells with 80 μl of half strength potato dextrose broth (Difco) containing 10^4 spores/ml of F culmorum; growth of the fungi was monitored by microspectrophotometry as described by Broekaert et al (1990, FEMS Microbiol Lett, 69: 55-60).
The specific antifungal activity of RPC-purified peak A material, as well as that of plant-derivable Rs-AFP2, was determined by measuring the percentage growth inhibition of F culmorum caused by serial dilutions of the protein samples. […]

F culmorum = experiment: Growth inhibition in SMF with varying CaCl2 or KCl (FIG. 7); type: cell-based
Description: Their antifungal activity was determined in SMF with increasing Ca^2+ or K^+ concentration and compared with that of plant-derivable wild type Rs-AFP2 (isolated from seed) as well as yeast purified Rs-AFP2. FIG. 7 is a graph of the percentage growth inhibition of F culmorum caused by 10 μg/ml of yeast-purified Rs-AFP2 (SEQ ID NO: 20) (open circles), seed-purified Rs-AFP2 (SEQ ID NO: 77) (closed circles), Rs-AFP2/G9R (SEQ ID NO: 38) (squares) and Rs-AFP2/V39R (SEQ ID NO: 43) (triangles) in a medium consisting of SMF with varying concentrations of CaCl2 (panel A) and KCl (panel B).

Alternaria brassicicola = experiment: Antifungal activity in three media differing in ionic strength (Table 3); type: cell-based; conditions: 72 hours
Description: (§1) The antifungal activity of the G9R and V39R Rs-AFP2 isoforms was also assessed on a set of seven different phytopathogenic fungi in three media differing in ionic strength: SMF−, SMF plus 1 mM CaCl2 and 50 mM KCl, and SMF plus 5 mM CaCl2 and 50 mM KCl. The fungi tested were: Alternaria brassicicola, Ascochyta pisi, Botrytis cinerea, Fusarium culmorum, Nectria haematococca, Phoma betae and Verticillium dahliae.

Ascochyta pisi = experiment: as above; type: cell-based; conditions: 72 hours
Description: as §1

Botrytis cinerea = experiment: as above; type: cell-based; conditions: 72 hours
Description: as §1

Fusarium culmorum [2] = experiment: as above; type: cell-based; conditions: 96 hours
Description: as §1

Nectria haematococca = experiment: as above; type: cell-based; conditions: 72 hours
Description: as §1

Phoma betae = experiment: as above; type: cell-based
Description: as §1

Verticillium dahliae = experiment: as above; type: cell-based; conditions: 96 hours
Description: as §1

various fungi = conditions: cited from earlier work

Substance: Rs-AFP2: plant-derivable wild-type antifungal protein 2 from Raphanus sativus (radish) seeds ([pGlu]KLCQRPSGTWSGVCGNNNACKNQCIRLEKARHGSCNYVFPAHKCICYFPC; cysteine pairing not given here; listed as Raphanus sativus) [reference compound]
- IC50 (concentration required for 50% growth inhibition) (Fusarium culmorum [1]; from dose-response curves of serial dilutions): about 3 μg/ml
- type of inhibition (hyphal morphology) (Fusarium culmorum [1]; induction of multiple branches near the tips): characteristic morphological distortion of the fungal hyphae
- activity in the presence of 100 mM KCl (F culmorum; SMF with 100 mM KCl, FIG. 7, 10 μg/ml): drastically reduced
- CaCl2 concentration at which fully active (F culmorum; protein 10 μg/ml): ≤ 1.25 mM
- growth inhibition in the presence of 5mM CaCl2 (F culmorum; protein 10 μg/ml, SMF with 5mM CaCl2): basically inactive
- IC50 VALUES, A brassicicola, SMF + 1 mM CaCl2/50 mM KCl (Alternaria brassicicola): >50 µg/mL
- IC50 VALUES, A brassicicola, SMF + 5 mM CaCl2/50 mM KCl (Alternaria brassicicola): >100 µg/mL
- IC50 VALUES, A brassicicola, SMF (Alternaria brassicicola; SMF−): 3.2 µg/mL
- IC50 VALUES, A pisi, SMF + 1 mM CaCl2/50 mM KCl (Ascochyta pisi): >50 µg/mL
- IC50 VALUES, A pisi, SMF + 5 mM CaCl2/50 mM KCl (Ascochyta pisi): >100 µg/mL
- IC50 VALUES, A pisi, SMF (Ascochyta pisi; SMF−): 1.9 µg/mL
- IC50 VALUES, B cinerea, SMF + 1 mM CaCl2/50 mM KCl (Botrytis cinerea): >50 µg/mL
- IC50 VALUES, B cinerea, SMF + 5 mM CaCl2/50 mM KCl (Botrytis cinerea): >100 µg/mL
- IC50 VALUES, B cinerea, SMF (Botrytis cinerea; SMF−): 1.8 µg/mL
- IC50 VALUES, F culmorum, SMF + 1 mM CaCl2/50 mM KCl (Fusarium culmorum [2]): 4.6 µg/mL
- IC50 VALUES, F culmorum, SMF + 5 mM CaCl2/50 mM KCl (Fusarium culmorum [2]): 22.0 µg/mL
- IC50 VALUES, F culmorum, SMF (Fusarium culmorum [2]; SMF−): 2.1 µg/mL
- IC50 VALUES, N haematococca, SMF + 1 mM CaCl2/50 mM KCl (Nectria haematococca): 48.0 µg/mL
- IC50 VALUES, N haematococca, SMF + 5 mM CaCl2/50 mM KCl (Nectria haematococca): >100 µg/mL
- IC50 VALUES, N haematococca, SMF (Nectria haematococca; SMF−): 2.0 µg/mL
- IC50 VALUES, P betae, SMF + 1 mM CaCl2/50 mM KCl (Phoma betae; 72 hours): 14.0 µg/mL
- IC50 VALUES, P betae, SMF + 5 mM CaCl2/50 mM KCl (Phoma betae; 72 hours): 27.0 µg/mL
- IC50 VALUES, P betae, SMF (Phoma betae; SMF−, 72 hours): 0.9 µg/mL
- activity against P betae compared with the G9R and V39R isoforms, in words (Phoma betae; Table 3 data): appeared to be more active
- IC50 VALUES, V dahliae, SMF + 1 mM CaCl2/50 mM KCl (Verticillium dahliae): 11.0 µg/mL
- IC50 VALUES, V dahliae, SMF + 5 mM CaCl2/50 mM KCl (Verticillium dahliae): 50.0 µg/mL
- IC50 VALUES, V dahliae, SMF (Verticillium dahliae; SMF−): 1.0 µg/mL
- activity relative to Rs-AFP1 on various fungi (various fungi): two- to thirty-fold more active
- salt-tolerance relative to Rs-AFP1 (various fungi): increased salt-tolerence
